{
  "source": "BigSolDB 2.1",
  "data": [
    {"smiles": "O=C(O)[C@@H]1Cc2ccccc2N1", "values": [
      {"measurement": "solubility (mole fraction)", "setting": "in ethanol, 283.15 K", "result": 0.00168},
      {"measurement": "solubility (mole fraction)", "setting": "in ethanol, 288.15 K", "result": 0.00216},
      {"measurement": "solubility (mole fraction)", "setting": "in ethanol, 292.85 K", "result": 0.00284},
      {"measurement": "solubility (mole fraction)", "setting": "in ethanol, 298.25 K", "result": 0.00358},
      {"measurement": "solubility (mole fraction)", "setting": "in ethanol, 303.05 K", "result": 0.00454},
      {"measurement": "solubility (mole fraction)", "setting": "in ethanol, 308.15 K", "result": 0.00572},
      {"measurement": "solubility (mole fraction)", "setting": "in ethanol, 313.45 K", "result": 0.00721},
      {"measurement": "solubility (mole fraction)", "setting": "in ethanol, 318.55 K", "result": 0.00895},
      {"measurement": "solubility (mole fraction)", "setting": "in ethanol, 323.35 K", "result": 0.0107},
      {"measurement": "solubility (mole fraction)", "setting": "in ethanol, 328.75 K", "result": 0.0138},
      {"measurement": "solubility (mole fraction)", "setting": "in ethanol, 333.25 K", "result": 0.0159},
      {"measurement": "solubility (mole fraction)", "setting": "in ethanol, 338.25 K", "result": 0.0186},
      {"measurement": "solubility (mole fraction)", "setting": "in ethanol, 343.15 K", "result": 0.022},
      {"measurement": "solubility (mole fraction)", "setting": "in isopropanol, 283.15 K", "result": 0.000941},
      {"measurement": "solubility (mole fraction)", "setting": "in isopropanol, 288.15 K", "result": 0.0015},
      {"measurement": "solubility (mole fraction)", "setting": "in isopropanol, 293.25 K", "result": 0.00197},
      {"measurement": "solubility (mole fraction)", "setting": "in isopropanol, 298.15 K", "result": 0.0028},
      {"measurement": "solubility (mole fraction)", "setting": "in isopropanol, 303.35 K", "result": 0.00387},
      {"measurement": "solubility (mole fraction)", "setting": "in isopropanol, 307.95 K", "result": 0.00504},
      {"measurement": "solubility (mole fraction)", "setting": "in isopropanol, 313.05 K", "result": 0.00685},
      {"measurement": "solubility (mole fraction)", "setting": "in isopropanol, 318.65 K", "result": 0.0093},
      {"measurement": "solubility (mole fraction)", "setting": "in isopropanol, 323.55 K", "result": 0.0109},
      {"measurement": "solubility (mole fraction)", "setting": "in isopropanol, 328.35 K", "result": 0.0144},
      {"measurement": "solubility (mole fraction)", "setting": "in isopropanol, 333.15 K", "result": 0.0169},
      {"measurement": "solubility (mole fraction)", "setting": "in isopropanol, 338.35 K", "result": 0.0202},
      {"measurement": "solubility (mole fraction)", "setting": "in isopropanol, 343.05 K", "result": 0.0241},
      {"measurement": "solubility (mole fraction)", "setting": "in isopropanol, 348.75 K", "result": 0.0299},
      {"measurement": "solubility (mole fraction)", "setting": "in isopropanol, 353.15 K", "result": 0.0369},
      {"measurement": "solubility (mole fraction)", "setting": "in methanol, 283.15 K", "result": 0.00436},
      {"measurement": "solubility (mole fraction)", "setting": "in methanol, 288.25 K", "result": 0.00543},
      {"measurement": "solubility (mole fraction)", "setting": "in methanol, 292.75 K", "result": 0.00647},
      {"measurement": "solubility (mole fraction)", "setting": "in methanol, 298.15 K", "result": 0.00809},
      {"measurement": "solubility (mole fraction)", "setting": "in methanol, 302.95 K", "result": 0.0103},
      {"measurement": "solubility (mole fraction)", "setting": "in methanol, 308.05 K", "result": 0.0122},
      {"measurement": "solubility (mole fraction)", "setting": "in methanol, 313.15 K", "result": 0.0145},
      {"measurement": "solubility (mole fraction)", "setting": "in methanol, 318.25 K", "result": 0.0166},
      {"measurement": "solubility (mole fraction)", "setting": "in methanol, 323.15 K", "result": 0.019},
      {"measurement": "solubility (mole fraction)", "setting": "in methanol, 328.55 K", "result": 0.0201},
      {"measurement": "solubility (mole fraction)", "setting": "in methanol, 333.15 K", "result": 0.026},
      {"measurement": "solubility (mole fraction)", "setting": "in n-butanol, 283.15 K", "result": 0.00228},
      {"measurement": "solubility (mole fraction)", "setting": "in n-butanol, 288.35 K", "result": 0.00316},
      {"measurement": "solubility (mole fraction)", "setting": "in n-butanol, 293.05 K", "result": 0.00395},
      {"measurement": "solubility (mole fraction)", "setting": "in n-butanol, 298.25 K", "result": 0.00481},
      {"measurement": "solubility (mole fraction)", "setting": "in n-butanol, 303.55 K", "result": 0.00592},
      {"measurement": "solubility (mole fraction)", "setting": "in n-butanol, 308.05 K", "result": 0.00708},
      {"measurement": "solubility (mole fraction)", "setting": "in n-butanol, 313.65 K", "result": 0.0083},
      {"measurement": "solubility (mole fraction)", "setting": "in n-butanol, 318.45 K", "result": 0.0102},
      {"measurement": "solubility (mole fraction)", "setting": "in n-butanol, 323.25 K", "result": 0.0111},
      {"measurement": "solubility (mole fraction)", "setting": "in n-butanol, 328.05 K", "result": 0.0131},
      {"measurement": "solubility (mole fraction)", "setting": "in n-butanol, 332.95 K", "result": 0.0144},
      {"measurement": "solubility (mole fraction)", "setting": "in n-butanol, 338.15 K", "result": 0.0162},
      {"measurement": "solubility (mole fraction)", "setting": "in n-butanol, 343.55 K", "result": 0.0186},
      {"measurement": "solubility (mole fraction)", "setting": "in n-butanol, 348.95 K", "result": 0.0217},
      {"measurement": "solubility (mole fraction)", "setting": "in n-butanol, 353.05 K", "result": 0.0237},
      {"measurement": "solubility (mole fraction)", "setting": "in n-butanol, 358.15 K", "result": 0.0268},
      {"measurement": "solubility (mole fraction)", "setting": "in n-propanol, 283.15 K", "result": 0.000819},
      {"measurement": "solubility (mole fraction)", "setting": "in n-propanol, 288.25 K", "result": 0.00105},
      {"measurement": "solubility (mole fraction)", "setting": "in n-propanol, 293.05 K", "result": 0.00153},
      {"measurement": "solubility (mole fraction)", "setting": "in n-propanol, 298.35 K", "result": 0.00211},
      {"measurement": "solubility (mole fraction)", "setting": "in n-propanol, 303.15 K", "result": 0.00284},
      {"measurement": "solubility (mole fraction)", "setting": "in n-propanol, 308.45 K", "result": 0.0039},
      {"measurement": "solubility (mole fraction)", "setting": "in n-propanol, 313.15 K", "result": 0.00502},
      {"measurement": "solubility (mole fraction)", "setting": "in n-propanol, 318.75 K", "result": 0.00673},
      {"measurement": "solubility (mole fraction)", "setting": "in n-propanol, 323.25 K", "result": 0.00835},
      {"measurement": "solubility (mole fraction)", "setting": "in n-propanol, 328.15 K", "result": 0.0107},
      {"measurement": "solubility (mole fraction)", "setting": "in n-propanol, 333.05 K", "result": 0.0135},
      {"measurement": "solubility (mole fraction)", "setting": "in n-propanol, 338.15 K", "result": 0.0167},
      {"measurement": "solubility (mole fraction)", "setting": "in n-propanol, 343.55 K", "result": 0.0214},
      {"measurement": "solubility (mole fraction)", "setting": "in n-propanol, 348.65 K", "result": 0.0261},
      {"measurement": "solubility (mole fraction)", "setting": "in n-propanol, 353.15 K", "result": 0.0304},
      {"measurement": "solubility (mole fraction)", "setting": "in n-propanol, 358.15 K", "result": 0.0397},
      {"measurement": "solubility (mole fraction)", "setting": "in water, 283.15 K", "result": 0.000308},
      {"measurement": "solubility (mole fraction)", "setting": "in water, 288.35 K", "result": 0.000309},
      {"measurement": "solubility (mole fraction)", "setting": "in water, 292.25 K", "result": 0.000316},
      {"measurement": "solubility (mole fraction)", "setting": "in water, 297.45 K", "result": 0.000322},
      {"measurement": "solubility (mole fraction)", "setting": "in water, 302.15 K", "result": 0.000335},
      {"measurement": "solubility (mole fraction)", "setting": "in water, 308.55 K", "result": 0.000365},
      {"measurement": "solubility (mole fraction)", "setting": "in water, 313.15 K", "result": 0.000401},
      {"measurement": "solubility (mole fraction)", "setting": "in water, 318.25 K", "result": 0.00046},
      {"measurement": "solubility (mole fraction)", "setting": "in water, 323.45 K", "result": 0.000547},
      {"measurement": "solubility (mole fraction)", "setting": "in water, 328.65 K", "result": 0.000673},
      {"measurement": "solubility (mole fraction)", "setting": "in water, 333.15 K", "result": 0.000825},
      {"measurement": "solubility (mole fraction)", "setting": "in water, 338.55 K", "result": 0.00108},
      {"measurement": "solubility (mole fraction)", "setting": "in water, 342.95 K", "result": 0.00138},
      {"measurement": "solubility (mole fraction)", "setting": "in water, 348.75 K", "result": 0.00196},
      {"measurement": "solubility (mole fraction)", "setting": "in water, 353.15 K", "result": 0.0026},
      {"measurement": "solubility (mole fraction)", "setting": "in water, 358.15 K", "result": 0.00366}
    ]}
  ]
}
